Data as given in ChEMBL document CHEMBL5154675, “Design, Synthesis, and Biological Evaluation of 1-(Indolizin-3-yl)ethan-1-ones as CBP Bromodomain Inhibitors for the Treatment of Prostate Cancer” (J Med Chem, 2022).

Legend:
[1] = AUC (0 to infinity) in Sprague-Dawley rat at 25 mg/kg, po measured up to 24 hrs; assay type: ADME, organism-based; set-up: time < 24 hrs, dose 25 mg/kg, route po; conditions: in vivo
CREB-binding protein [2] = biological target: T1, CREB-binding protein (Homo sapiens, UniProt Q92793); assay: Inhibition of His6-tagged human CBP bromodomain (1081 to 1197 residues) expressed in Escherichia coli BL21 (DE3) incubated for 30 mins by HTRF assay
LNCaP C4-2B = assay: Antiproliferative activity against human LNCaP C4-2B cells assessed as inhibition of cell growth by Celltiter-Glo assay; assay type: functional, cell-based
[3] = AUC (0 to infinity) in Sprague-Dawley rat at 5 mg/kg, iv administered as single dose measured up to 24 hrs; assay type: ADME, organism-based; set-up: time < 24 hrs, dose 5 mg/kg, route iv; conditions: Sprague-Dawley, in vivo
[4] = Cmax in Sprague-Dawley rat at 25 mg/kg, po measured up to 24 hrs; assay type: ADME, organism-based; set-up: dose 25 mg/kg, time < 24 hrs, route po; conditions: in vivo
[5] = Cmax in Sprague-Dawley rat at 5 mg/kg, iv administered as single dose measured up to 24 hrs; assay type: ADME, organism-based; set-up: time < 24 hrs, dose 5 mg/kg, route iv; conditions: in vivo
[6] = Clearance in Sprague-Dawley rat at 5 mg/kg, iv administered as single dose measured up to 24 hrs; assay type: ADME, organism-based; conditions: Sprague-Dawley, in vivo
[7] = Half life in Sprague-Dawley rat at 25 mg/kg, po measured up to 24 hrs; assay type: ADME, organism-based; conditions: in vivo
[8] = Half life in Sprague-Dawley rat at 5 mg/kg, iv administered as single dose measured up to 24 hrs; assay type: ADME, organism-based; conditions: Sprague-Dawley, in vivo
[9] = Oral bioavailability in Sprague-Dawley rat at 25 mg/kg measured up to 24 hrs; assay type: ADME, organism-based; conditions: in vivo
LNCaP = assay: Antiproliferative activity against human LNCaP cells assessed as cell growth inhibition by Celltiter-Glo assay; assay type: functional, cell-based
CWR22R = assay: Antiproliferative activity against human 22Rv1 cells assessed as cell growth inhibition by Celltiter-Glo assay; assay type: functional, cell-based
CREB-binding protein [10] = biological target: T1, CREB-binding protein; conditions: dose 200.0 µM, time 30.0 min
[11] = biological target: Histone acetyltransferase p300 (Homo sapiens) (UniProt Q09472); conditions: dose 200.0 µM, time 30.0 min
[12] = biological target: PH-interacting protein (Homo sapiens) (UniProt Q8WWQ0); conditions: dose 200.0 µM, time 30.0 min
[13] = biological target: Chromatin remodeling regulator CECR2 (Homo sapiens) (UniProt Q9BXF3); conditions: dose 200.0 µM, time 30.0 min
[14] = biological target: Bromodomain adjacent to zinc finger domain protein 2B (Homo sapiens) (UniProt Q9UIF8); conditions: dose 200.0 µM, time 30.0 min
Sequence of Bromodomain adjacent to zinc finger domain protein 2B (Homo sapiens) (Q9UIF8 whole entry, the tested form may be a part): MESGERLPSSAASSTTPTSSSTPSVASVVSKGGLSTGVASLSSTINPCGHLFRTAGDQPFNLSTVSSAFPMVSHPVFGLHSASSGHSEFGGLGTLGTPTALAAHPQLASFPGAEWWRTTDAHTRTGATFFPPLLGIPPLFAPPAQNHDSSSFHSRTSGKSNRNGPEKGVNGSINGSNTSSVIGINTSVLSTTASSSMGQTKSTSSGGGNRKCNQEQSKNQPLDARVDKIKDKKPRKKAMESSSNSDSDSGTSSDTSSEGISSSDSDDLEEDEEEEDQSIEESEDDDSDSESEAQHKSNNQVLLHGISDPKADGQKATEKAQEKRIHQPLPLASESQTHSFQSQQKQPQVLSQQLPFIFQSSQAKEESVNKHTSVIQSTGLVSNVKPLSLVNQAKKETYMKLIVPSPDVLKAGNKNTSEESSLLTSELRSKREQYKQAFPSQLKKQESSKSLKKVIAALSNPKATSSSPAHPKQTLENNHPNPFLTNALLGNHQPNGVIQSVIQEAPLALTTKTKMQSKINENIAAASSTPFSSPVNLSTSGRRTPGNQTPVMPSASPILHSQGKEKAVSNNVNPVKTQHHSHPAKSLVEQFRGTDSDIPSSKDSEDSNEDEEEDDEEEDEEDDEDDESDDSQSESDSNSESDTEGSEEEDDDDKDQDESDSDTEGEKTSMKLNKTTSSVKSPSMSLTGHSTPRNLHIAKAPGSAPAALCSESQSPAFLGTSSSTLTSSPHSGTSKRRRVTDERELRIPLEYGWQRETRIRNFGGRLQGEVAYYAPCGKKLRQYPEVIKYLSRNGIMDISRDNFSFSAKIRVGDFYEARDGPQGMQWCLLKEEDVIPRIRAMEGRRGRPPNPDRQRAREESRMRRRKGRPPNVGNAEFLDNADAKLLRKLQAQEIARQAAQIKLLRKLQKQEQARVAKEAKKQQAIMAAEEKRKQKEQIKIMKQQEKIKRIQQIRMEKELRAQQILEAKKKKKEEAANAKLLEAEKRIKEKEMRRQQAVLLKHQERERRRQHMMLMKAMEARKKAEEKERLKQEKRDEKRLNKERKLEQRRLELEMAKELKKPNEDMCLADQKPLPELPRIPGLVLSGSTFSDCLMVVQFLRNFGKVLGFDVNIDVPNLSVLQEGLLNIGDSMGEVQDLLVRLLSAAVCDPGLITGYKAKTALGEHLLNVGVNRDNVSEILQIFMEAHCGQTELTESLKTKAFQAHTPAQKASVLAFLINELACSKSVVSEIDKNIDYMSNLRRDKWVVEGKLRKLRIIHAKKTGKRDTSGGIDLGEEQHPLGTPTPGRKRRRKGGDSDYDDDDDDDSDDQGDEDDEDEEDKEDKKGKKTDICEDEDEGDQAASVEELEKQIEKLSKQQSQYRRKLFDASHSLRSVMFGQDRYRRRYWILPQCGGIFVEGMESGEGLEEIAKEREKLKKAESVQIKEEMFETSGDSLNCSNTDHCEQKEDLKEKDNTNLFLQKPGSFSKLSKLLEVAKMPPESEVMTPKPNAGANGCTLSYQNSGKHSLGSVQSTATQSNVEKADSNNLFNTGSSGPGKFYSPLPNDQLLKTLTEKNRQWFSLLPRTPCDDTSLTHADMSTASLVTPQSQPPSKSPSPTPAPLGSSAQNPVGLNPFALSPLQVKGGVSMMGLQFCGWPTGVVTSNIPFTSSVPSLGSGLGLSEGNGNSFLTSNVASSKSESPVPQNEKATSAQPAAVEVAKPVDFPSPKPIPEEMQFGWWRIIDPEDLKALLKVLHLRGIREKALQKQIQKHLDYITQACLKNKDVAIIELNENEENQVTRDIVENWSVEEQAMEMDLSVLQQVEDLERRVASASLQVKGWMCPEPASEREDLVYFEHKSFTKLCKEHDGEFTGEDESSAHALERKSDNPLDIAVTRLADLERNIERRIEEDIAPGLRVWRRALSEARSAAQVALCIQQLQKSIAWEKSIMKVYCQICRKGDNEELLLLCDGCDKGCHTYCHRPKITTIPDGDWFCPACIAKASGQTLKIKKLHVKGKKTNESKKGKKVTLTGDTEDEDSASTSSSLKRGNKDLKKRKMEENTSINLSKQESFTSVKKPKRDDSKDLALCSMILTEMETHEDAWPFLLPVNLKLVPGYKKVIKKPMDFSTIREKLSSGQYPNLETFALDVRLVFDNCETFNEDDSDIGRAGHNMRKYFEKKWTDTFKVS

[15] = biological target: Histone acetyltransferase KAT2B (Homo sapiens) (UniProt Q92831); conditions: dose 200.0 µM, time 30.0 min
Sequence of Histone acetyltransferase KAT2B (Homo sapiens) (Q92831 whole entry, looked up): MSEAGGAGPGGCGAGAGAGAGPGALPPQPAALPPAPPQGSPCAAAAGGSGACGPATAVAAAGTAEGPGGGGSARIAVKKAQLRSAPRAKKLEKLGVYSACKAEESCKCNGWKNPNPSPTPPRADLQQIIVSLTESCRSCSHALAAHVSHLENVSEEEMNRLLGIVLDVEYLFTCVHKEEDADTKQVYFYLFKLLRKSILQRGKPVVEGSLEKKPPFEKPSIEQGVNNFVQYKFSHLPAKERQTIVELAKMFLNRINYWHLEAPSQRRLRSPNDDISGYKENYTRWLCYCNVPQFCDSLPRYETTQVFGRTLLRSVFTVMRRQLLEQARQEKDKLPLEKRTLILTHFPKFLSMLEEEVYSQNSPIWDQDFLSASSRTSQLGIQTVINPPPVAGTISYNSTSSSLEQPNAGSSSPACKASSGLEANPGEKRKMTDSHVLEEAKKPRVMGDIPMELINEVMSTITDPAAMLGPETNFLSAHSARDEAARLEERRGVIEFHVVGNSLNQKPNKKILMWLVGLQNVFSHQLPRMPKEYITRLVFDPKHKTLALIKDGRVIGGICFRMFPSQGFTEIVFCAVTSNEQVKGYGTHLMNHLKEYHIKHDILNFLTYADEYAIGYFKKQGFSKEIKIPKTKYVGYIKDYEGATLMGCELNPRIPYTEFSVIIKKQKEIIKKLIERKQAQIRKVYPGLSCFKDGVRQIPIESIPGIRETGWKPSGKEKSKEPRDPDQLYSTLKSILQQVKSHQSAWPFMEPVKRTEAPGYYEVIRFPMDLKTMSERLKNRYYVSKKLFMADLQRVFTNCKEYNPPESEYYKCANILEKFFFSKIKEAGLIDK

[16] = biological target: T2, Bromodomain-containing protein 4 (Homo sapiens, UniProt O60885); conditions: dose 200.0 µM, time 30.0 min
[17] = biological target: T2, Bromodomain-containing protein 4; conditions: dose 200.0 µM, time 30.0 min; remark: listed apart in the source
[18] = biological target: T3, Bromodomain-containing protein 3 (Homo sapiens, UniProt Q15059); conditions: dose 200.0 µM, time 30.0 min
T3 sequence (Q15059 2-726 limits assumed): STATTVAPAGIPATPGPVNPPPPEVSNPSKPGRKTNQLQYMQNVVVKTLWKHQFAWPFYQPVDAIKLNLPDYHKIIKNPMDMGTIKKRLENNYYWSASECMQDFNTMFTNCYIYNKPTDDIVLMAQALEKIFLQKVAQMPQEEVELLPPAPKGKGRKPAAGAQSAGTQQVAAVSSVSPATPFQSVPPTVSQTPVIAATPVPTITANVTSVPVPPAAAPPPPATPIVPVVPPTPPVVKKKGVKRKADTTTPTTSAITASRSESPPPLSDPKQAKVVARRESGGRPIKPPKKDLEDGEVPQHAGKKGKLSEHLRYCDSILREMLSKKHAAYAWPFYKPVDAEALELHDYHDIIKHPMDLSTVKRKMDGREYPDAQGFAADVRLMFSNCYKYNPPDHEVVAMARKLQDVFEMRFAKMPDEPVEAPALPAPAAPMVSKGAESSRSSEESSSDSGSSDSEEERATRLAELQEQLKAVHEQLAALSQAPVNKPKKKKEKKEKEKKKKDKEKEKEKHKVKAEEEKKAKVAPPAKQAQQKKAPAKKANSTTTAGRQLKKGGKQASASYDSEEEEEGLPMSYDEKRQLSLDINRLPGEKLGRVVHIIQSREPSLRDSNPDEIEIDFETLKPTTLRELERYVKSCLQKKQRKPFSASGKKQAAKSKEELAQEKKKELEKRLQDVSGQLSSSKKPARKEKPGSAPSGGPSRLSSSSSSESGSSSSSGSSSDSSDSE

[19] = biological target: T3, Bromodomain-containing protein 3; conditions: dose 200.0 µM, time 30.0 min; remark: listed apart in the source
[20] = biological target: T4, Bromodomain-containing protein 2 (Homo sapiens, UniProt P25440); conditions: dose 200.0 µM, time 30.0 min
Target sequence in this assay (P25440 whole entry, looked up): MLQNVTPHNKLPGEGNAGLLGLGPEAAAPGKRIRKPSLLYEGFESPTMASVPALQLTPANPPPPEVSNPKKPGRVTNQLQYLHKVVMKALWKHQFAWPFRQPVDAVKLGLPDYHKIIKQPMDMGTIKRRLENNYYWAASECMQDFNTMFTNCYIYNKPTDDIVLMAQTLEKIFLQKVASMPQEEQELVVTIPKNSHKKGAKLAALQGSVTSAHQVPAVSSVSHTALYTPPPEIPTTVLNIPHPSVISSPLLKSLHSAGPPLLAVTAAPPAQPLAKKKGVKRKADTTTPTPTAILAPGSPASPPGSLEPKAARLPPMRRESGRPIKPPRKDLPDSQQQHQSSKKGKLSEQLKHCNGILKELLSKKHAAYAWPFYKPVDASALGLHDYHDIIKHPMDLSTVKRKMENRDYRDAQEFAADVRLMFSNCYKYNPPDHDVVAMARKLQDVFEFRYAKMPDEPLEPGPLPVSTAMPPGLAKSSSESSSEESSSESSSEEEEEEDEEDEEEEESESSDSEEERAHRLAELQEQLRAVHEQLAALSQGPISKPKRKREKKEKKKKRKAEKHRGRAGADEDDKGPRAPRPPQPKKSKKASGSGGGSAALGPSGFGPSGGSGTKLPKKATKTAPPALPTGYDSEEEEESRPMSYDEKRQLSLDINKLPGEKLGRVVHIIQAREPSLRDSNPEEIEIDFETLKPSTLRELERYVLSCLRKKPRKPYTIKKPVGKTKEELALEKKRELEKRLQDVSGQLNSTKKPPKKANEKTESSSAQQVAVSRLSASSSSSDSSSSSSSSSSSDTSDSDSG

[21] = biological target: T4, Bromodomain-containing protein 2; conditions: dose 200.0 µM, time 30.0 min; remark: listed apart in the source
Target sequence in this assay (P25440 whole entry, looked up): as above

[22] = biological target: T5, Bromodomain testis-specific protein (Homo sapiens, UniProt Q58F21); conditions: dose 200.0 µM, time 30.0 min
[23] = biological target: T5, Bromodomain testis-specific protein; conditions: dose 200.0 µM, time 30.0 min; remark: listed apart in the source
[24] = biological target: SWI/SNF-related matrix-associated actin-dependent regulator of chromatin subfamily A member 2 (Homo sapiens) (UniProt P51531); conditions: dose 200.0 µM, time 30.0 min
[25] = biological target: T6, Bromodomain-containing protein 9 (Homo sapiens) (UniProt Q9H8M2); conditions: dose 200.0 µM, time 30.0 min
T6 sequence (whole entry): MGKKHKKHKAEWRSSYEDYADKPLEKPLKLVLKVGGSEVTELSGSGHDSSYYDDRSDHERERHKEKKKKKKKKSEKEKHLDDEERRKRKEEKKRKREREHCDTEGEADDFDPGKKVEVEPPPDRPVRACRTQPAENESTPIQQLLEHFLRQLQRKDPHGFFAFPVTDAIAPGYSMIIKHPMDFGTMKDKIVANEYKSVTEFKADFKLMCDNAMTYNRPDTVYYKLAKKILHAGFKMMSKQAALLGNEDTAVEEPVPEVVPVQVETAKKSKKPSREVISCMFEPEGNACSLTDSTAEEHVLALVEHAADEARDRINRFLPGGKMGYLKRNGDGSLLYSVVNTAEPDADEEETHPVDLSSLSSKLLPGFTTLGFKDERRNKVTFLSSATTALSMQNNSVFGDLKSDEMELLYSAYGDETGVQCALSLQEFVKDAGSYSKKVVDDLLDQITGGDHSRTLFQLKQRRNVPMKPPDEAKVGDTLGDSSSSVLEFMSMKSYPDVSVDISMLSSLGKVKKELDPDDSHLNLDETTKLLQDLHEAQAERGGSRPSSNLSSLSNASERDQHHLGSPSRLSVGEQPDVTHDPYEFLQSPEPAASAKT

[26] = biological target: T7, Bromodomain-containing protein 9 (Homo sapiens, UniProt Q9H8M2); assay: Binding affinity to His6-tagged human BRD9 bromodomain (14 to 134 residues) expressed in Escherichia coli BL21 (DE3) assessed as dissociation constant by ITC analysis
T7 sequence (Q9H8M2 whole entry): T6 sequence (whole entry)

[27] = biological target: T4, Bromodomain-containing protein 2; assay: Binding affinity to His6-tagged human BRD2 bromodomain-1 (77 to 194 residues) expressed in Escherichia coli BL21 (DE3) assessed as dissociation constant by ITC analysis
[28] = biological target: T2, Bromodomain-containing protein 4; assay: Binding affinity to His6-tagged human BRD4 bromodomain-1 (44 to 168 residues) expressed in Escherichia coli BL21 (DE3) assessed as dissociation constant by ITC analysis
[29] = biological target: T5, Bromodomain testis-specific protein; assay: Binding affinity to His6-tagged human BRDT bromodomain-1 (21 to 137 residues) expressed in Escherichia coli BL21 (DE3) assessed as dissociation constant by ITC analysis

CC(=O)c1cc(C(=O)Nc2cc(C(C)O)cc(-c3cnn(C4CC4)c3)c2F)c2cc(N)ccn12 (stereo unspecified)
AUC(0-inf) [1]: 29.4 ng·h/mL
IC50 (CREB-binding protein [2]): 1.48 nM
IC50 (LNCaP C4-2B): 2970 nM
AUC(0-inf) [3]: 796 ng·h/mL
Cmax [4]: 46.8 ng/mL
Cmax [5]: 2680 ng/mL
clearance [6]: 107 mL/min/kg
half-life [7]: 1.97 h
half-life [8]: 1.32 h
bioavailability [9]: 0.68%
IC50 (LNCaP): 440 nM
IC50 (CWR22R): 2930 nM
ΔTm (CREB-binding protein [10]): 14 °C
ΔTm [11]: 14.5 °C
ΔTm [12]: -0.3 °C
ΔTm [13]: -0.2 °C
ΔTm [14]: -0.2 °C
ΔTm [15]: -0.3 °C
ΔTm [16]: -0.6 °C
ΔTm [17]: 0 °C
ΔTm [18]: 0.5 °C
ΔTm [19]: 0 °C
ΔTm [20]: -0.8 °C
ΔTm [21]: 1.3 °C
ΔTm [22]: 1.5 °C
ΔTm [23]: 0 °C
ΔTm [24]: -0.3 °C
ΔTm [25]: 5.3 °C

CO[C@H]1CC[C@H](n2c([C@@H]3CCCC(=O)N3c3ccc(F)c(F)c3)nc3cc(-c4c(C)noc4C)ccc32)CC1 [INOBRODIB]
IC50 (LNCaP C4-2B): 1650 nM
Kd [26]: 2610 nM
Kd [27]: 390 nM
Kd [28]: 360 nM
Kd [29]: 1120 nM
IC50 (LNCaP): 60 nM
IC50 (CWR22R): 420 nM
ΔTm (CREB-binding protein [10]): 17.5 °C
ΔTm [11]: 17.5 °C
ΔTm [12]: 0 °C
ΔTm [13]: 0 °C
ΔTm [14]: -0.5 °C
ΔTm [15]: -0.5 °C
ΔTm [16]: 6.3 °C
ΔTm [17]: 1.3 °C
ΔTm [18]: 5.5 °C
ΔTm [19]: 2 °C
ΔTm [20]: 3.8 °C
ΔTm [21]: 2.3 °C
ΔTm [22]: 2.5 °C
ΔTm [23]: 0.5 °C
ΔTm [24]: 0 °C
ΔTm [25]: 4.3 °C
